Like-named read-outs stand apart in the source and are kept apart here.
Tested on: patients with Fuchs Corneal Dystrophy (corneal edema)
Assay type: in vivo, human
Settings: for BCVA (best corrected visual acuity) improvement: netarsudil QD
Text: FIG. 1 is a graphic representation of the study described in Example 6.
A Randomized, Open-Label, Parallel-Group Study of Two Dosing Regimens of Netarsudil in Patients with Fuchs Corneal Dystrophy
Fuchs Corneal Dystrophy (FCD) is a slowly progressive corneal disease, and is the most common indication for corneal transplants worldwide. A typical patient presents with blurred vision, glare, and a hazy cornea from corneal edema. The only definitive treatment option to restore vision is surgery. There is a large unmet need for pharmacologic alternatives to surgery
Purpose of this study: evaluate the therapeutic potential of two dosing regimens of netarsudil, a Rho kinase inhibitor, to reduce corneal edema and improve visual acuity in patients with FCD. […] Complete resolution of edema in 12.5% of patients at Week 4 (BID+QD) (FIG. 2). • d. 25% of patients gained letters from baseline in BCVA at Week 4 (BID+QD) (FIG. 4). • e. […] Improvements in validated patient reported outcome questionnaire shown at all timepoints with netarsudil QD dosing (FIG. 5). • g. […] Most common ocular TEAE was hyperemia accounting for 3/9 and 6/17 total ocular TEAE in the QD and BID groups, respectively. • i. Reticular edema developed in 1 patient in BID group, which resolved with treatment discontinuation.

SMILES: Cc1ccc(C(=O)OCc2ccc([C@@H](CN)C(=O)Nc3ccc4cnccc4c3)cc2)c(C)c1 [netarsudil, Netarsudil]
- reticular edema developed (human, in vivo): 1 patient
- tolerability (human, in vivo): well tolerated
- BCVA (best corrected visual acuity) improvement (week 2): 5.0 letters
- BCVA (best corrected visual acuity) improvement (week 4): 3.2 letters
- patients with complete resolution of edema (week 4, BID+QD): 12.5%
- patients who gained letters from baseline in BCVA (week 4, overall (BID+QD)): 25%

Source: patent publication US20230293511A1, “Ophthalmic Compositions and Uses Thereof” (priority 2022, published 2023)
